The source of these data is patent US8324194B2, “Combination therapy for the treatment of cancer” (Incyte Corporation, priority 2005, dated 2012).

For assay [1], the system named is BT-474 human breast cancer xenografts. Description: Growth of subcutaneous BT-474 breast cancer xenograft in mice. As to conditions: BT-474 xenograft; for inhibited tumor cell growth over the control group: nu/nu mice, Compound 1 60 mg/kg/day SC pump for 14 days, fulvestrant 5 mg SC once per week for four weeks, mean tumor volume vs control group (a); for tumor growth delay (TGD, T-C) to 500 cubic mm by linear regression analysis of tumor growth rate: Compound 1 60 mg/kg/day for 14 days, fulvestrant 5 mg weekly x4, projected time. It counts as in vivo. The protocol: Human breast cancer cell line BT-474 was obtained from American Type Tissue Culture Collection (ATCC, Manassas, Va.). Cells were routinely maintained in media recommended by the ATCC with slight modifications. Cells were kept at 37° C. in a humidified incubator supplied with 5% CO2. BT-474 cells were grown in RPMI 1640 (Invitrogen) supplemented with 10% fetal bovine serum (FBS), 0.01 mg/ml bovine insulin, 10 mM HEPES and 0.1 mM non-essential amino acids.
Animal studies were performed under Animal Welfare Regulation Guidelines in a facility accredited by the Association for the Assessment and Accreditation of Laboratory Animal Care (AAALAC). Balb/c or CD-1 nu/nu mice (Charles River, Wilmington, Mass.) were injected subcutaneously with logarithmically growing cells suspended in either serum free culture media, or a 1:1 mixture media and Matrigel™ (BD Biosciences). The tumor models required implantation (on the same day or one day prior to cell inoculation) of estradiol pellets (17-βestradiol, 0.72 mg/pellet, 60 day release; Innovative Research of American, Sarasota, Fla.). The time in days after injection of the tumor cells into the mice was measured as “days post-inoculation”.
Subcutaneous implantation of osmotic pumps (obtained from Alzet, Cupertino, Calif.) was performed under isofluorane anesthesia following manufacturer's protocol. Subcutaneous pumps were used to deliver a solution of Compound 1, or its inert solvent. Fulvestrant, or its inert solvent, was delivered by subcutaneous injection on the dorsal flanks of the animals. […] Treatment was usually initiated when mean tumor volumes were approximately 150 mm^3 at the beginning of treatment. Ten test animals were included in each Treatment group, (a)-(d).
Tumor size was measured and used to calculate tumor volume for a period of time following the injection of the tumor cells into the mice. Tumor size was measured by using a caliper to measure the length (l) and width (w) of tumors to calculate an approximate volume ((l×w^2)/2). These tumor size measurements and tumor volume calculations were recorded relative to the number of days post-inoculation of the mice with the tumor cells. […] Mean tumor volume was calculated based on the tumor volumes for the ten test animals in each treatment group.
Treatment group (a) was the control group of test animals. […] Tumor size was measured for each test animal as described above and recorded as a function of the number of days post-inoculation of the mice with the BT-474 breast cancer cells. Mean tumor volume was then calculated for treatment group (a) and plotted against the number of days post-inoculation as shown in FIG. 2. […]

Assay [2] concerns MCF-7 human breast cancer xenografts. Description: Growth of subcutaneous MCF-7 breast cancer xenograft in mice. It counts as in vivo. As to conditions: MCF-7 xenograft; for inhibited tumor cell growth over the control group: nu/nu mice, fulvestrant 5 mg SC once per week for four weeks, mean tumor volume vs control group (a). The protocol:
Human breast cancer cell line MCF-7 was obtained from American Type Tissue Culture Collection (ATCC, Manassas, Va.). Cells were routinely maintained in media recommended by the ATCC with slight modifications. Cells were kept at 37° C. in a humidified incubator supplied with 5% CO2. MCF-7 cells were kept in Eagle's minimal essential medium (ATCC) supplemented with 10% FBS and 0.01 mg/ml bovine insulin.
Animal studies were performed under Animal Welfare Regulation Guidelines in a facility accredited by the Association for the Assessment and Accreditation of Laboratory Animal Care (AAALAC). Balb/c or CD-1 nu/nu mice (Charles River, Wilmington, Mass.) were injected subcutaneously with logarithmically growing cells suspended in either serum free culture media, or a 1:1 mixture media and Matrigel™ (BD Biosciences). The tumor models required implantation (on the same day or one day prior to cell inoculation) of estradiol pellets (17-β estradiol, 0.72 mg/pellet, 60 day release; Innovative Research of American, Sarasota, Fla.). The time in days after injection of the tumor cells into the mice was measured as “days post-inoculation”.
Subcutaneous implantation of osmotic pumps (obtained from Alzet, Cupertino, Calif.) was performed under isofluorane anesthesia following manufacturer's protocol. Subcutaneous pumps (hereinafter “SC pumps”) were used to deliver a solution of Compound 1, or its inert solvent. Fulvestrant, or its inert solvent, was delivered by subcutaneous injection on the dorsal flanks of the animals. Treatment was usually initiated when mean tumor volumes were approximately 150 mm^3 at the beginning of treatment. Ten test animals were included in each treatment group, (a)-(d).
Tumor size was measured and used to calculate tumor volume for a period of time following the injection of the tumor cells into the mice. Tumor size was measured by using a caliper to measure the length (1) and width (w) of tumors to calculate an approximate volume ((l×w^2)/2). These tumor size measurements and tumor volume calculations were recorded relative to the number of days post-inoculation of the mice with the tumor cells. The frequency of the tumor size measurements varied depending on how quickly the tumors grew in size, with more frequent measurements being taken when the tumors grew quickly. Mean tumor volume was calculated based on the tumor volumes for the ten test animals in each treatment group.
Treatment group (a) was the control group of test animals. […] Tumor size was measured for each test animal as described above and recorded as a function of the number of days post-inoculation of the mice with the MCF-7 breast cancer cells. Mean tumor volume was then calculated for treatment group (a) and plotted against the number of days post-inoculation as shown in FIG. 1. […]

The mark [3] stands for this setting: Compound 1 60 mg/kg/day SC pump for 14 days.

`COC(=O)N1CC2(CC2)C[C@H](C(=O)NO)[C@H]1C(=O)N1CCN(c2ccccc2)CC1` [Compound 1, methyl (6S,7S)-7-[(hydroxyamino)carbonyl]-6-[(4-phenylpiperazin-1-yl)carbonyl]-5-azaspiro[2.5]octane-5-carboxylate]: in assay [1], the “inhibited tumor cell growth over the control group” value is given as 33% and the “tumor growth delay (TGD, T-C) to 500 cubic mm by linear regression analysis of tumor growth rate” value stood at 19 days. Moreover, in assay [2] (setting [3]), the “inhibited tumor cell growth over the control group” value is 46% and the “tumor growth delay (TGD, T-C) to 1000 cubic mm, real, not calculated” value was 32 days.
With `C[C@]12CC[C@@H]3c4ccc(O)cc4C[C@@H](CCCCCCCCC[S+]([O-])CCCC(F)(F)C(F)(F)F)[C@H]3[C@@H]1CC[C@@H]2O` (some centres unmarked) [fulvestrant], in assay [1], the “inhibited tumor cell growth over the control group” value amounted to 46% and the “tumor growth delay (TGD, T-C) to 500 cubic mm by linear regression analysis of tumor growth rate” value was determined as 54 days. For the same compound, in assay [2] (setting [3]), the “inhibited tumor cell growth over the control group” value is 52%. The “calculated tumor growth delay (TGD, T-C) to 1000 cubic mm by linear regression analysis of tumor growth curves” value in assay [2] (fulvestrant 5 mg SC weekly x4, alone or with Compound 1 60 mg/kg/day for 14 days, projected time) was 63 days.
